Test results: PubChem BioAssay (NCI)
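Compound exposure: 48 hours, 5 concentrations, 96-well plates. Here, GI50 denotes the concentration required for 50% inhibition of growth. Definition used: TGI = concentration required for complete inhibition of growth.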

Experiments:
Experiment in all cases: NCI-60 cell line screen, 48 h
[1] = tested on: MOLT-4 leukemia
[2] = tested on: CCRF-CEM leukemia
[3] = tested on: A549 NSCLC
[4] = tested on: SF-295 CNS
[5] = tested on: LOX IMVI melanoma
[6] = tested on: PC-3 prostate
[7] = tested on: HOP-92 NSCLC
[8] = tested on: NCI-H226 lung
[9] = tested on: HS 578T breast
[10] = tested on: U251 CNS
[11] = tested on: EKVX NSCLC
[12] = tested on: OVCAR-3 ovarian
[13] = tested on: OVCAR-4 ovarian
[14] = tested on: A498 renal
[15] = tested on: SK-MEL-28 melanoma
[16] = tested on: IGROV1 ovarian
[17] = tested on: 786-0 renal
[18] = tested on: COLO 205 colon
[19] = tested on: SK-MEL-5 melanoma
[20] = tested on: T-47D breast
[21] = tested on: OVCAR-8 ovarian
[22] = tested on: UACC-62 melanoma
[23] = tested on: RXF 393 renal
[24] = tested on: BT-549 breast
[25] = tested on: K-562 leukemia
[26] = tested on: HL-60(TB) leukemia
[27] = tested on: MDA-MB-231 breast
[28] = tested on: KM12 colon
[29] = tested on: DU-145 prostate
[30] = tested on: SF-268 CNS
[31] = tested on: NCI-H23 lung
[32] = tested on: SNB-19 CNS
[33] = tested on: HT29 colon
[34] = tested on: RPMI-8226 leukemia
[35] = tested on: SK-MEL-2 melanoma
[36] = tested on: SN12C renal
[37] = tested on: SNB-75 CNS
[38] = tested on: CAKI-1 renal
[39] = tested on: UACC-257 melanoma
[40] = tested on: HOP-62 NSCLC
[41] = tested on: OVCAR-5 ovarian
[42] = tested on: HCT-116 colon
[43] = tested on: SF-539 CNS
[44] = tested on: SW-620 colon
[45] = tested on: UO-31 renal
[46] = tested on: ACHN renal
[47] = tested on: SK-OV-3 ovarian
[48] = tested on: HCT-15 colon
[49] = tested on: MALME-3M melanoma
[50] = tested on: NCI-H522 lung
[51] = tested on: MCF7 breast
[52] = tested on: SR leukemia
[53] = tested on: M14 melanoma
[54] = tested on: NCI-H460 lung
[55] = tested on: TK-10 renal
[56] = tested on: MDA-MB-435
[57] = tested on: NCI/ADR-RES ovarian
[58] = tested on: HCC-2998 colon

## O=C(/C=C\c1ccc(O)c(O)c1)c1ccccc1O
[1]
  GI50: 1890 nM
  TGI: 97.5 µM
[2]
  GI50: 645 nM
  TGI: > 100 µM
[3]
  GI50: 17.1 µM
  TGI: > 100 µM
[4]
  GI50: 17.7 µM
  TGI: 54.4 µM
[5]
  GI50: 11 µM
  TGI: 23.1 µM
[6]
  GI50: 13.4 µM
  TGI: 89.8 µM
[7]
  GI50: 3.77 µM
  TGI: 27.7 µM
[8]
  GI50: 11 µM
  TGI: 39.1 µM
[9]
  GI50: 17.2 µM
  TGI: 81.9 µM
[10]
  GI50: 7.95 µM
  TGI: 33.1 µM
[11]
  GI50: 14.4 µM
  TGI: > 100 µM
[12]
  GI50: 8.86 µM
  TGI: 24.2 µM
[13]
  GI50: 8.73 µM
  TGI: 98.7 µM
[14]
  GI50: 16 µM
  TGI: 32.8 µM
[15]
  GI50: 15.1 µM
  TGI: 42.7 µM
[16]
  GI50: 711 nM
  TGI: 23.8 µM
[17]
  GI50: 10.6 µM
  TGI: 23.3 µM
[18]
  GI50: 8.99 µM
  TGI: 21.6 µM
[19]
  GI50: 11.4 µM
  TGI: 28.4 µM
[20]
  GI50: 5.57 µM
  TGI: 45.5 µM
[21]
  GI50: 14.7 µM
  TGI: 56.8 µM
[22]
  GI50: 12.1 µM
  TGI: 26.1 µM
[23]
  GI50: 4.21 µM
  TGI: 17.2 µM
[24]
  GI50: 3.61 µM
  TGI: 18.8 µM
[25]
  GI50: 12.5 µM
  TGI: 71.5 µM
[26]
  GI50: 2400 nM
  TGI: 6.05 µM
[27]
  GI50: 9.51 µM
  TGI: 37 µM
[28]
  GI50: 11.8 µM
  TGI: 27.6 µM
[29]
  GI50: 11.7 µM
  TGI: 45.3 µM
[30]
  GI50: 12.1 µM
  TGI: 59 µM
[31]
  GI50: 12.7 µM
  TGI: 32.8 µM
[32]
  GI50: 17.4 µM
  TGI: 91.8 µM
[33]
  GI50: 18.4 µM
  TGI: 47.1 µM
[34]
  GI50: 578 nM
  TGI: 29.6 µM
[35]
  GI50: 12 µM
  TGI: 41.7 µM
[36]
  GI50: 11.8 µM
  TGI: 37.5 µM
[37]
  GI50: 14.7 µM
  TGI: 94.3 µM
[38]
  GI50: 4.45 µM
  TGI: 40 µM
[39]
  GI50: 12.8 µM
  TGI: 44 µM
[40]
  GI50: 12.6 µM
  TGI: 50.8 µM
[41]
  GI50: 18 µM
  TGI: 40.4 µM
[42]
  GI50: 11.9 µM
  TGI: 24.9 µM
[43]
  GI50: 6.69 µM
  TGI: 26.5 µM
[44]
  GI50: 11.3 µM
  TGI: 26.4 µM
[45]
  GI50: 2200 nM
  TGI: 18 µM
[46]
  GI50: 8.31 µM
  TGI: 24 µM
[47]
  GI50: 17.7 µM
  TGI: 71.6 µM
[48]
  GI50: 2520 nM
  TGI: 19.1 µM
[49]
  GI50: 11.4 µM
  TGI: 32.5 µM
[50]
  GI50: 214 nM
  TGI: 809 nM
[51]
  GI50: 14.6 µM
  TGI: > 100 µM
[52]
  GI50: 3.17 µM
  TGI: 69.8 µM
[53]
  GI50: 12.9 µM
  TGI: 29.9 µM
[54]
  GI50: 15.1 µM
  TGI: 49.8 µM
[55]
  GI50: 18.2 µM
  TGI: > 100 µM
[56]
  GI50: 6.45 µM
  TGI: 39.4 µM
[57]
  GI50: 10.8 µM
  TGI: 36.1 µM
[58]
  GI50: 13.9 µM
  TGI: 27 µM
